# Measurements published in patent publication US8445492B2, “Method for inhibiting growth of cancer cells and cell telomere and diseases of cell proliferation by using heteroannelated anthraquinone derivative compounds” (National Defense Medical Center, priority 2008, dated 2013).
# Key:
# Format in all cases: cell-based
# LOX IMVI = assay: NCI DTP in-vitro dose response, Melanoma
# MALME-3M = assay: NCI DTP in-vitro dose response, Melanoma
# M14 = assay: NCI DTP in-vitro dose response, Melanoma
# SK-MEL-28 = assay: NCI DTP in-vitro dose response, Melanoma
# SK-MEL-5 = assay: NCI DTP in-vitro dose response, Melanoma
# UACC-257 = assay: NCI DTP in-vitro dose response, Melanoma
# UACC-62 = assay: NCI DTP in-vitro dose response, Melanoma
# MCF7 = assay: NCI DTP in-vitro dose response, Breast Cancer
# NCI/ADR-RES = assay: NCI DTP in-vitro dose response, Breast Cancer; conditions: NCI/ADR-RES
# MDA-MB-231/ATCC = assay: NCI DTP in-vitro dose response, Breast Cancer; conditions: MDA-MB-231/ATCC
# HS 578T = assay: NCI DTP in-vitro dose response, Breast Cancer; conditions: HS 578T
# MDA-MB-435 = assay: NCI DTP in-vitro dose response, Breast Cancer
# BT-549 = assay: NCI DTP in-vitro dose response, Breast Cancer
# T-47D = assay: NCI DTP in-vitro dose response, Breast Cancer; conditions: T-47D
# [1] = read-out: LC50 (the source's name)
structure (smiles),measurement,setting,value
CCc1nc2ccc3c(c2[nH]1)C(=O)c1ccccc1C3=O [TABLE 4-5],CC50,LOX IMVI,> 100 µM
same,TGI,LOX IMVI,>1.00E−4
same,Percent Growth,LOX IMVI; Log10 Concentration −4.0,10%
same,Percent Growth,LOX IMVI; Log10 Concentration −5.0,33%
same,Percent Growth,LOX IMVI; Log10 Concentration −6.0,83%
same,Percent Growth,LOX IMVI; Log10 Concentration −7.0,91%
same,Percent Growth,LOX IMVI; Log10 Concentration −8.0,101%
same,GI50,LOX IMVI; read-out: GI50,4.61 µM
same,CC50,MALME-3M,> 100 µM
same,TGI,MALME-3M,8.69E−5
same,Percent Growth,MALME-3M; Log10 Concentration −4.0,−2%
same,Percent Growth,MALME-3M; Log10 Concentration −5.0,26%
same,Percent Growth,MALME-3M; Log10 Concentration −6.0,83%
same,Percent Growth,MALME-3M; Log10 Concentration −7.0,84%
same,Percent Growth,MALME-3M; Log10 Concentration −8.0,87%
same,GI50,MALME-3M; read-out: GI50,3.75 µM
same,CC50,M14,> 100 µM
same,TGI,M14,>1.00E−4
same,Percent Growth,M14; Log10 Concentration −4.0,25%
same,Percent Growth,M14; Log10 Concentration −5.0,50%
same,Percent Growth,M14; Log10 Concentration −6.0,78%
same,Percent Growth,M14; Log10 Concentration −7.0,95%
same,Percent Growth,M14; Log10 Concentration −8.0,88%
same,GI50,M14; read-out: GI50,10.2 µM
same,CC50,SK-MEL-28,> 100 µM
same,TGI,SK-MEL-28,6.36E−5
same,Percent Growth,SK-MEL-28; Log10 Concentration −4.0,−12%
same,Percent Growth,SK-MEL-28; Log10 Concentration −5.0,48%
same,Percent Growth,SK-MEL-28; Log10 Concentration −6.0,79%
same,Percent Growth,SK-MEL-28; Log10 Concentration −7.0,84%
same,Percent Growth,SK-MEL-28; Log10 Concentration −8.0,89%
same,GI50,SK-MEL-28; read-out: GI50,8.58 µM
same,CC50,SK-MEL-5,> 100 µM
same,TGI,SK-MEL-5,8.36E−6
same,Percent Growth,SK-MEL-5; Log10 Concentration −4.0,−19%
same,Percent Growth,SK-MEL-5; Log10 Concentration −5.0,−5%
same,Percent Growth,SK-MEL-5; Log10 Concentration −6.0,59%
same,Percent Growth,SK-MEL-5; Log10 Concentration −7.0,42%
same,Percent Growth,SK-MEL-5; Log10 Concentration −8.0,44%
same,CC50,UACC-257,> 100 µM
same,TGI,UACC-257,>1.00E−4
same,Percent Growth,UACC-257; Log10 Concentration −4.0,18%
same,Percent Growth,UACC-257; Log10 Concentration −5.0,66%
same,Percent Growth,UACC-257; Log10 Concentration −6.0,96%
same,Percent Growth,UACC-257; Log10 Concentration −7.0,84%
same,Percent Growth,UACC-257; Log10 Concentration −8.0,84%
same,GI50,UACC-257; read-out: GI50,21.6 µM
same,CC50,UACC-62,> 100 µM
same,TGI,UACC-62,>1.00E−4
same,Percent Growth,UACC-62; Log10 Concentration −4.0,26%
same,Percent Growth,UACC-62; Log10 Concentration −5.0,41%
same,Percent Growth,UACC-62; Log10 Concentration −6.0,85%
same,Percent Growth,UACC-62; Log10 Concentration −7.0,92%
same,Percent Growth,UACC-62; Log10 Concentration −8.0,83%
same,GI50,UACC-62; read-out: GI50,6.18 µM
O=C1c2ccccc2C(=O)c2c1ccc1nccnc21 [TABLE 5-9],TGI,MCF7; MCF7,2.98E−5
same,Percent Growth,"MCF7; MCF7, Log10 Concentration −4.0",−29%
same,Percent Growth,"MCF7; MCF7, Log10 Concentration −5.0",27%
same,Percent Growth,"MCF7; MCF7, Log10 Concentration −6.0",45%
same,Percent Growth,"MCF7; MCF7, Log10 Concentration −7.0",80%
same,Percent Growth,"MCF7; MCF7, Log10 Concentration −8.0",81%
same,GI50,"MCF7; MCF7, read-out: GI50",0.722 µM
same,CC50,"MCF7; MCF7, read-out: LC50 (the source's name)",> 100 µM
same,TGI,NCI/ADR-RES,>1.00E−4
same,Percent Growth,NCI/ADR-RES; Log10 Concentration −4.0,8%
same,Percent Growth,NCI/ADR-RES; Log10 Concentration −5.0,38%
same,Percent Growth,NCI/ADR-RES; Log10 Concentration −6.0,87%
same,Percent Growth,NCI/ADR-RES; Log10 Concentration −7.0,92%
same,Percent Growth,NCI/ADR-RES; Log10 Concentration −8.0,95%
same,GI50,NCI/ADR-RES; read-out: GI50,5.68 µM
same,CC50,NCI/ADR-RES; [1],> 100 µM
same,TGI,MDA-MB-231/ATCC,>1.00E−4
same,Percent Growth,MDA-MB-231/ATCC; Log10 Concentration −4.0,14%
same,Percent Growth,MDA-MB-231/ATCC; Log10 Concentration −5.0,64%
same,Percent Growth,MDA-MB-231/ATCC; Log10 Concentration −6.0,85%
same,Percent Growth,MDA-MB-231/ATCC; Log10 Concentration −7.0,88%
same,Percent Growth,MDA-MB-231/ATCC; Log10 Concentration −8.0,100%
same,GI50,MDA-MB-231/ATCC; read-out: GI50,19.1 µM
same,CC50,MDA-MB-231/ATCC; [1],> 100 µM
same,TGI,HS 578T,9.14E−5
same,Percent Growth,HS 578T; Log10 Concentration −4.0,−2%
same,Percent Growth,HS 578T; Log10 Concentration −5.0,59%
same,Percent Growth,HS 578T; Log10 Concentration −6.0,81%
same,Percent Growth,HS 578T; Log10 Concentration −7.0,90%
same,Percent Growth,HS 578T; Log10 Concentration −8.0,88%
same,GI50,HS 578T; read-out: GI50,14.1 µM
same,CC50,HS 578T; [1],> 100 µM
same,TGI,MDA-MB-435; MDA-MB-435,2.37E−5
same,Percent Growth,"MDA-MB-435; MDA-MB-435, Log10 Concentration −4.0",−95%
same,Percent Growth,"MDA-MB-435; MDA-MB-435, Log10 Concentration −5.0",57%
same,Percent Growth,"MDA-MB-435; MDA-MB-435, Log10 Concentration −6.0",101%
same,Percent Growth,"MDA-MB-435; MDA-MB-435, Log10 Concentration −7.0",97%
same,Percent Growth,"MDA-MB-435; MDA-MB-435, Log10 Concentration −8.0",101%
same,GI50,"MDA-MB-435; MDA-MB-435, read-out: GI50",11.1 µM
same,CC50,"MDA-MB-435; MDA-MB-435, read-out: LC50 (the source's name)",50.4 µM
same,TGI,BT-549; BT-549,9.35E−5
same,Percent Growth,"BT-549; BT-549, Log10 Concentration −4.0",−2%
same,Percent Growth,"BT-549; BT-549, Log10 Concentration −5.0",55%
same,Percent Growth,"BT-549; BT-549, Log10 Concentration −6.0",83%
same,Percent Growth,"BT-549; BT-549, Log10 Concentration −7.0",85%
same,Percent Growth,"BT-549; BT-549, Log10 Concentration −8.0",95%
same,GI50,"BT-549; BT-549, read-out: GI50",12.2 µM
same,CC50,"BT-549; BT-549, read-out: LC50 (the source's name)",> 100 µM
same,TGI,T-47D,7.51E−5
same,Percent Growth,T-47D; Log10 Concentration −4.0,−8%
same,Percent Growth,T-47D; Log10 Concentration −5.0,56%
same,Percent Growth,T-47D; Log10 Concentration −6.0,71%
same,Percent Growth,T-47D; Log10 Concentration −7.0,80%
same,Percent Growth,T-47D; Log10 Concentration −8.0,85%
same,GI50,T-47D; read-out: GI50,12.6 µM
same,CC50,T-47D; [1],> 100 µM
